≈ marks a conversion by molar mass, not a printed value.
Key:
[1] = molecular target: Mitogen-activated protein kinase; ERK1/ERK2 (Homo sapiens, UniProt P27361+P28482); assay: Inhibition of RAF1- induced activation of MEK (unknown origin) signalling pathway assessed as reduction in ERK1/2 phosphorylation; type: protein assay
WiDr = assay: Antiproliferative activity against human WiDr cells assessed as reduction in cell viability incubated for 48 hrs by MTT assay; type: functional, cell-based
HT-1080 = assay: cells; conditions: Homo sapiens, HT-1080, 48 h
Description: Antiproliferative activity against human HT-1080 cells assessed as reduction in cell viability incubated for 48 hrs by MTT assay

Staphylococcus aureus = assay: Antibacterial activity against Methicillin-resistant Staphylococcus aureus assessed as reduction in bacterial growth; type: functional
[2] = molecular target: Quinolone resistance protein NorA (Staphylococcus aureus) (UniProt P0A0J7); assay: Inhibition of NorA efflux pump in Staphylococcus aureus SA1199B overexpressing NorA gene assessed as inhibition of EtBr efflux at 50 uM incubated for 20 mins by fluorometric assay
A-375 = assay: Antiproliferative activity against human A-375 cells assessed as reduction in cell growth incubated for 72 hrs by MTT assay; type: functional, cell-based; conditions: A-375, 72 h
HT-29 = assay: Antiproliferative activity against human HT-29 cells assessed as reduction in cell growth incubated for 72 hrs by MTT assay; type: functional, cell-based; conditions: HT-29, 72 h
Jurkat = assay: Antiproliferative activity against human Jurkat cells assessed as reduction in cell growth incubated for 72 hrs by MTT assay; type: functional, cell-based
A549 [3] = assay: Antiproliferative activity against human A549 cells assessed as reduction in cell growth incubated for 72 hrs by MTT assay; type: functional, cell-based; conditions: A549, 72 h
MDA-MB-468 = assay: Antiproliferative activity against human MDA-MB-468 cells assessed as reduction in cell growth incubated for 72 hrs by MTT assay; type: functional, cell-based; conditions: MDA-MB-468, 72 h
OE33 = assay: Antiproliferative activity against human OE33 cells assessed as reduction in cell growth incubated for 72 hrs by MTT assay; type: functional, cell-based; conditions: OE33, 72 h
Tubulin = assay: Inhibition of tubulin polymerization (unknown origin); type: protein-complex assay, Homo sapiens
PT-45 = assay: Antiproliferative activity against human PT-45 cells assessed as reduction in cell growth incubated for 72 hrs by MTT assay; type: functional, cell-based; conditions: PT-45, 72 h
MCF7 [4] = assay: Antiproliferative activity against human MCF7 cells assessed as reduction in cell growth incubated for 48 hrs by MTT assay; type: functional, cell-based; conditions: MCF7, 48 h
HepG2 [5] = assay: Antiproliferative activity against human HepG2 cells assessed as reduction in cell viability incubated for 72 hrs by MTT assay; type: functional, cell-based; conditions: HepG2, 72 h
HeLa = assay: Antiproliferative activity against human HeLa cells assessed as reduction in cell viability incubated for 72 hrs by MTT assay; type: functional, cell-based
A549 [6] = assay: Antiproliferative activity against human A549 cells assessed as reduction in cell growth incubated for 48 hrs by MTT assay; type: functional, cell-based; conditions: A549, 48 h
OVCAR-3 = assay: Antiproliferative activity against human OVCAR-3 cells assessed as reduction in cell viability incubated for 72 hrs by MTT assay; type: functional, cell-based; conditions: OVCAR-3, 72 h
Tubulin (Homo sapiens) = Tubulin (Homo sapiens) (UniProt P68371+Q9H4B7+P0DPH7+P68366+Q13509+Q71U36+P04350+Q3ZCM7+P07437+P68363+Q9BQE3+Q6PEY2+Q13885+Q9BVA1+Q9BUF5); assay: Inhibition of [3H]-colchicine binding to tubulin (unknown origin) at 5 uM relative to control; type: protein-complex assay
NCI-H295R = assay: Antiproliferative activity against human NCI-H295R cells assessed as reduction in cell viability incubated for 72 hrs by MTT assay; type: functional, cell-based
OE19 = assay: Antiproliferative activity against human OE19 cells assessed as reduction in cell growth incubated for 72 hrs by MTT assay; type: functional, cell-based; conditions: OE19, 72 h
ARO = assay: Antiproliferative activity against human ARO cells assessed as reduction in cell growth incubated for 48 hrs by MTT assay; type: functional, cell-based
[7] = Inhibition of human LOX
Homo sapiens = species: Homo sapiens; assay: Inhibition of human Lipoxygenase at 100 uM relative to control
[8] = molecular target: Dual specificity mitogen-activated protein kinase kinase 1 (Homo sapiens, UniProt Q02750); assay: Inhibition of RAF1- induced activation of MEK (unknown origin) signalling pathway assessed as reduction in MEK1 phosphorylation
[9] = Inhibition of Influenza A virus H1N1 neuraminidase
Influenza A virus = assay: Antiviral activity against Influenza A virus H1N1 infected in dog MDCK cells assessed as inhibition in virus-induced cytopathic effect incubated for 48 hrs by SRB assay; type: functional, organism-based
DU-145 [10] = assay: Antiproliferative activity against human DU-145 cells assessed as reduction in cell viability measured for 48 hrs by MTT assay; type: functional, cell-based; conditions: DU-145, 48 h
DU-145 [11] = assay: Antitumor activity against human DU-145 cells xenografted in Balb/c nude mouse model assessed as tumor growth inhibition at 5 mg/kg, ip administered once daily for 16 days relative to control; type: functional; parameters: scale not given: the % may be the effect or the level left; conditions: time 16 day
HepG2 [12] = assay: Cytotoxicity against human HepG2 cells assessed as reduction in cell growth incubated for 48 hrs by MTT assay; type: functional, cell-based; conditions: HepG2, 48 h
KB = assay: Cytotoxicity against human KB cells assessed as reduction in cell growth incubated for 48 hrs by MTT assay; type: functional, cell-based
[13] = molecular target: Epidermal growth factor receptor (Homo sapiens, UniProt P00533); assay: Inhibition of EGFR (unknown origin)
MV4-11 = assay: Antiproliferative activity against human MV4-11 cells assessed as reduction in cell growth incubated for 48 hrs by MTT assay; type: functional, cell-based; conditions: MV4-11, 48 h
HL-60 = assay: Antiproliferative activity against human HL-60 cells assessed as reduction in cell growth incubated for 48 hrs by MTT assay; type: functional, cell-based; conditions: HL-60, 48 h
MCF7 [14] = assay: cells; conditions: Homo sapiens, MCF7, 72 h
[15] = tested on: Panel NCI-60 (60 carcinoma cell lines); assay: Antiproliferative activity against human Panel NCI-60 (60 carcinoma cell lines) assessed as reduction in cell viability; type: functional, cell-based
[16] = tested on: Human immunodeficiency virus 1; assay: Antiviral activity against HIV1 infected in H9 cells assessed as reduction in viral replication; type: functional; conditions: Human immunodeficiency virus 1, H9; read-out: ED50 (the source's name)
Cytochrome P450 1A2 = Cytochrome P450 1A2 (Homo sapiens, UniProt P05177); assay: Inhibition of CYP1A2 (unknown origin); type: ADME
Chain of Cytochrome P450 1A2 (P05177 whole entry): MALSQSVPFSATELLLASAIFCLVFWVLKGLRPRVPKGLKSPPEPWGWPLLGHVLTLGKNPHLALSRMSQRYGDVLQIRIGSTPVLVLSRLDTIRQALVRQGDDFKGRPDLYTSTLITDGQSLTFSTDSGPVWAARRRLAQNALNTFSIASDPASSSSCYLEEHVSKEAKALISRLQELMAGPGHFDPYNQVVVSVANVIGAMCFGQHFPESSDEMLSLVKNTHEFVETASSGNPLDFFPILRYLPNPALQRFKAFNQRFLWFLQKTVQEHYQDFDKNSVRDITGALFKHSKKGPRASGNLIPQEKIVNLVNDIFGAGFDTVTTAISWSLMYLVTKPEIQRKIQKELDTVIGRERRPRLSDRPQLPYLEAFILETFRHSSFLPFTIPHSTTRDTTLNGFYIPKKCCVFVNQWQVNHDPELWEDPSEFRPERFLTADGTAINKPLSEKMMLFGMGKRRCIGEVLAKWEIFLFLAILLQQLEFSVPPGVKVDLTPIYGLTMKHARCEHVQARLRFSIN

Chain of Epidermal growth factor receptor (P00533 whole entry): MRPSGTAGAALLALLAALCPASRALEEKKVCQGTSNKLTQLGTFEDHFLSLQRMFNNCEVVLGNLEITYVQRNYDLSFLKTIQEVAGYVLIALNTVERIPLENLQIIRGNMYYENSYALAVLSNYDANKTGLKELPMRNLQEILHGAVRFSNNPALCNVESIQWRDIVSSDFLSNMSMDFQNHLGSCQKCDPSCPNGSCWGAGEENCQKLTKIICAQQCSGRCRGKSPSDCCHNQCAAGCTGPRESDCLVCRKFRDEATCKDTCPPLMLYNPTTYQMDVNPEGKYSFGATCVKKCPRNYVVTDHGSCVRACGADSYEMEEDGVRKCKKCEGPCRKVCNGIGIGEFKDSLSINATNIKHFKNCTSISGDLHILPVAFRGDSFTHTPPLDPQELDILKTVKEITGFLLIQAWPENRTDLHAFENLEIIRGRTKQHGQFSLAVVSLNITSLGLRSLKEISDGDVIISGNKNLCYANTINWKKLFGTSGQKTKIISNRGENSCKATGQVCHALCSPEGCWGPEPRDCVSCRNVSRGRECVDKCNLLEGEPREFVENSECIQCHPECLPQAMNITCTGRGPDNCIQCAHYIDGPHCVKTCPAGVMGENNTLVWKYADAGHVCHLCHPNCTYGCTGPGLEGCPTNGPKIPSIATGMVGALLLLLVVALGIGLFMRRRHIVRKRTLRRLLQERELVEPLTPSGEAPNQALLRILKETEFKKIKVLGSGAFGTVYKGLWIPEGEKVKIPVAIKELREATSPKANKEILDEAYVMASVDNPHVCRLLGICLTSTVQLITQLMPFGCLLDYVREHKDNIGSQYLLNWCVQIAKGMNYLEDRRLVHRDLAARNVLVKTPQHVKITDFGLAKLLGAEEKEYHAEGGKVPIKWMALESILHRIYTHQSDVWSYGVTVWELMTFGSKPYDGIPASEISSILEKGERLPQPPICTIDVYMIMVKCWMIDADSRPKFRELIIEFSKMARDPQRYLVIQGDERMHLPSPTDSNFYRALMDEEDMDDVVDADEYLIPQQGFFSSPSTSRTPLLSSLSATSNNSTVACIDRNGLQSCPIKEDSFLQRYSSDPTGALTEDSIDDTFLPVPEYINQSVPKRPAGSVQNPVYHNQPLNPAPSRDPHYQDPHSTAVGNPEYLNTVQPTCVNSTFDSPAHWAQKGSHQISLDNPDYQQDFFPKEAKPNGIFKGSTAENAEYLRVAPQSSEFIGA
Chain of Dual specificity mitogen-activated protein kinase kinase 1 (Q02750 whole entry): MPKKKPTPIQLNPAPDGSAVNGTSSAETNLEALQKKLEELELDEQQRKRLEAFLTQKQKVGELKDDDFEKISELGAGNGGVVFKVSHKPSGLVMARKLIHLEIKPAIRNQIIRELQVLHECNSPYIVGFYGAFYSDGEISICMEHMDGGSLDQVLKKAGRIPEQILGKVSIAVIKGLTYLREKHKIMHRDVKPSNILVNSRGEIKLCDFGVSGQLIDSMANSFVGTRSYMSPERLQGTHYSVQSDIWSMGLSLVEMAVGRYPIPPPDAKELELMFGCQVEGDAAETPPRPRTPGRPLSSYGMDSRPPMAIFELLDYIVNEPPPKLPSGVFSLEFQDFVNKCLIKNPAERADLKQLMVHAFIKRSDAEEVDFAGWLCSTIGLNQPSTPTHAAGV

## COc1cccc(-c2cc(=O)c3ccccc3o2)c1N
[1]
  IC50: 2950 nM
WiDr
  IC50: 10000 nM
HT-1080
  IC50: 8600 nM

## CCCOc1ccc(-c2cc(=O)c3ccccc3o2)cc1
Staphylococcus aureus
  MIC: 0.4 µg/mL (≈ 1.43 µM)
[2]
  inhibition: 33.9%

## CCOC(=O)CCn1ccc2c3c(=O)cc(-c4ccccc4)[nH]c3ccc21
A-375
  IC50: 5 nM
HT-29
  IC50: 5 nM
Jurkat
  IC50: 5 nM
A549 [3]
  IC50: 5 nM
MDA-MB-468
  IC50: 5 nM
OE33
  IC50: 5 nM
Tubulin
  IC50: 750 nM
PT-45
  IC50: 5 nM
MCF7 [4]
  IC50: 5 nM
HepG2 [5]
  IC50: 5 nM
HeLa
  IC50: 5 nM
A549 [6]
  IC50: 5 nM
OVCAR-3
  IC50: 5 nM
Tubulin (Homo sapiens)
  inhibition: 75%
NCI-H295R
  IC50: 5 nM
OE19
  IC50: 5 nM
ARO
  IC50: 5 nM

## Oc1ccc(-c2ccc3ccccc3n2)c2ccccc12
[7]
  IC50: 6500 nM
Homo sapiens
  inhibition: > 80%

## COc1cccc(-c2cc(=O)c3ccccc3s2)c1N
[1]
  IC50: 13800 nM
WiDr
  IC50: 30500 nM
HT-1080
  IC50: 29500 nM
[8]
  IC50: 4350 nM

## COc1ccccc1-c1cc(=O)c2ccccc2[nH]1
[9]
  IC50: 1300 nM
Influenza A virus
  EC50: 4960 nM

## O=C1C[C@H](c2cccc(Br)c2)Nc2ccccc21
DU-145 [10]
  IC50: 400 nM
DU-145 [11]
  Activity: 60%

## COc1cccc(-c2c[nH]c3c(F)cc(F)cc3c2=O)c1
HepG2 [12]
  IC50: 50 nM
KB
  IC50: 60 nM

## COc1cc(O)c2c(O)c(-c3cccc(Cl)c3)cnc2c1
[13]
  IC50: 40 nM

## COc1cccc(-c2c[nH]c3c(F)cccc3c2=O)c1
HepG2 [12]
  IC50: 10 nM
KB
  IC50: 30 nM

## COc1cc2c(cc1CC=C(C)C)C(=O)NC(c1ccc(O)cc1)N2 (configuration not stated)
MV4-11
  IC50: 500 nM
HL-60
  IC50: 250 nM

## CCOC(=O)C1=C[C@@H](OC(CC)CC)[C@H](NC(C)=O)[C@@H](N)C1 [OSELTAMIVIR]
[9]
  IC50: 1900 nM
Influenza A virus
  EC50: 12700 nM

## COc1ccc(-c2cc(=O)c3cc(OC)c(OC)c(OC)c3o2)cc1
Tubulin
  IC50: 3000 nM
Tubulin (Homo sapiens)
  inhibition: 43%
MCF7 [14]
  IC50: 1700 nM

## Oc1ccc2nc(-c3ccccc3O)ccc2c1
[7]
  IC50: 6500 nM
Homo sapiens
  inhibition: > 80%

## COc1cc(O)c2c(O)cc(-c3cccc(F)c3)nc2c1
[15]
  IC50: 14500 nM

## COc1ccc(-c2oc3c(OC)c(OC)c(OC)c(O)c3c(=O)c2OC)cc1O
Tubulin
  IC50: 800 nM
Tubulin (Homo sapiens)
  inhibition: 59%
MCF7 [14]
  IC50: 130 nM

## O=c1c(O)c(-c2ccc(O)c(O)c2)oc2cc(O)cc(O)c12 [QUERCETIN]
[9]
  IC50: 8700 nM
Influenza A virus
  EC50: 560 nM

## CC(=O)Oc1cc2sc(-c3ccccc3)cc(=O)c2cc1OC(C)=O
[16]
  EC50: 0.65 µg/mL (≈ 1.83 µM)

## COc1ccc(-c2cc(=O)c3cc(OC)c4cccc(OC)c4c3[nH]2)cc1
Cytochrome P450 1A2
  IC50: 4.1 nM

## O=c1cc(-c2ccccc2)[nH]c2ccc3c(ccn3CC3CC3)c12
A-375
  IC50: 20 nM
HT-29
  IC50: 20 nM
Jurkat
  IC50: 20 nM
MDA-MB-468
  IC50: 20 nM
Tubulin
  IC50: 900 nM
MCF7 [4]
  IC50: 20 nM
OVCAR-3
  IC50: 20 nM
Tubulin (Homo sapiens)
  inhibition: 83%
NCI-H295R
  IC50: 20 nM
OE19
  IC50: 20 nM
ARO
  IC50: 20 nM

## COc1ccc(-c2oc3cc(O)c(OC)c(O)c3c(=O)c2OC)cc1O [CENTAUREIDIN]
Tubulin (Homo sapiens)
  inhibition: 35%
MCF7 [14]
  IC50: 240 nM

From ChEMBL document CHEMBL5576076, “Bioisosteric heterocyclic analogues of natural bioactive flavonoids by scaffold-hopping approaches: State-of-the-art and perspectives in medicinal chemistry” (Bioorg Med Chem, 2024)
